Assay [1] concerns the target T1, Ras farnesyl transferase (Homo sapiens, UniProt P49354+P49356).
T1 construct: made in house
Put plainly: In vitro inhibitory activity for Ras farnesyl transferase, H-Ras substrate. The format is biochemical. The settings on record: recombinant farnesyl transferase 4.5 nM, Ras substrate protein 1.5 μM, tritium-farnesylpyrophosphate 0.15 μM, 30 minutes at 37° C.; read-out: H-Ras IC50.

Assay [2] concerns the target T2, Ras farnesyl transferase (Rattus norvegicus, UniProt Q02293+Q04631).
T2 construct: endogenous in cells; host or cells: Rat2 fibroblasts transformed with H-Ras or with an H-Ras/K-Ras C-terminus fusion
The experiment in a line: In vivo (cellular) inhibitory activity for Ras farnesyl transferase, Rat2 cell line transformed with fused protein of H-Ras substituted with polybasic lysine domain at C-terminus of K-Ras. The format is cell-based. The settings on record: Rat2 cell line transformed with H-Ras fused with polybasic lysine domain of K-Ras C-terminus; concentration inhibiting 50% of farnesyl bonding; read-out: K-Ras CIC50. The method, boiled down: (§1)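 Farnesylated versus unfarnesylated Ras bands were measured by autoradiography after Y13-259 immunoprecipitation and SDS-PAGE, giving CIC50 as 50% inhibition of farnesylation. Rat2 cells expressing H-Ras or an H-Ras fusion with K-Ras polybasic C-terminus got compound (1% DMSO), then [35S]methionine from 4 h onward for 20 h.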

The target in assay [3] is T1, Ras farnesyl transferase. The experiment in a line: In vitro inhibitory activity for Ras farnesyl transferase, K-Ras substrate. The class given is biochemical. The settings on record: in vitro farnesyl transferase assay, K-Ras; read-out: K-Ras IC50.
The target of assay [4] is T2, Ras farnesyl transferase. Put plainly: In vivo (cellular) inhibitory activity for Ras farnesyl transferase, Rat2 cell line which expresses C-Harvey-Ras protein. The format is cell-based. The settings on record: Rat2 cell line expressing C-Harvey-Ras; concentration inhibiting 50% of farnesyl bonding of Ras protein; read-out: H-Ras CIC50. The method, boiled down: as §1

Molecules are shown by their SMILES. pIC50: −log10 of the molar value.

As for `COCCN(C)C(=O)c1cn(Cc2cncn2CCc2cccc(Cl)c2)cc1-c1cccc2ccccc12` [Compound 25, 1-[1-(3-Chloro)phenethyl-1H-imidazol-5-yl]methyl-3-[N-(2-methoxyethyl)-N-methyl]carbamoyl-4-(naphthalen-1-yl)-1H-pyrrole], the pIC50 was 8.70 at Ras farnesyl transferase [1], 4.30 to 5.00 at Ras farnesyl transferase [2], 8.30 at Ras farnesyl transferase [3] and 7.82 at Ras farnesyl transferase [4].
The like results for `CN1CCN(C(=O)c2cn(Cc3cncn3CCc3cccc(Cl)c3)cc2-c2cccc3ccccc23)CC1` [Compound 26, 1-[1-(3-Chloro)phenethyl-1H-imidazol-5-yl]methyl-3-[4-methylpiperazin-1-yl]carbonyl-4-(naphthalen-1-yl)-1H-pyrrole] were, in that order, 8.70, 4.30 to 5.00, 8.52 and 7.82.
For `COCCN(C)C(=O)c1cn(Cc2cncn2CCCc2ccccc2)cc1-c1cccc2ccccc12` [Compound 27, 3-[N-(2-Methoxyethyl)-N-methyl]carbamoyl-4-(naphthalen-1-yl)-1-[1-(3-pheny)propyl-1H-imidazol-5-yl]methyl-1H-pyrrole], the pIC50 is 8.22 on Ras farnesyl transferase [1], 4.52 to 5.00 at Ras farnesyl transferase [2], 8.30 on Ras farnesyl transferase [3] and 7.60 on Ras farnesyl transferase [4].
`CN1CCN(C(=O)c2cn(Cc3cncn3CCCc3ccccc3)cc2-c2cccc3ccccc23)CC1` [Compound 28]: the pIC50 at Ras farnesyl transferase [1] was 9.00; at Ras farnesyl transferase [2], 4.52 to 5.00; at Ras farnesyl transferase [3] it was 8.70; at Ras farnesyl transferase [4] it was 7.70.
As for `COCCN(C)C(=O)c1cn(Cc2cncn2Cc2ccc3ccccc3c2)cc1-c1cccc2ccccc12` [Compound 29, 3-[N-(2-Methoxyethyl)-N-methyl]carbamoyl-4-(naphthalen-1-yl)-1-[1-(naphthalen-2-yl)methyl-1H-imidazol-5-yl]methyl-1H-pyrrole], the pIC50 is 8.70 on Ras farnesyl transferase [1], 4.70 to 5.00 at Ras farnesyl transferase [2], 8.40 at Ras farnesyl transferase [3] and 8.00 at Ras farnesyl transferase [4].
On the same counts, the results for `CN1CCN(C(=O)c2cn(Cc3cncn3Cc3ccc4ccccc4c3)cc2-c2cccc3ccccc23)CC1` [Compound 30] are 8.70, 4.70 to 5.00, 8.40 and 8.00.
`COCCN(C)C(=O)c1cn(Cc2cncn2CCc2cccc3ccccc23)cc1-c1cccc2ccccc12` [Compound 31, 3-[N-(2-Methoxyethyl)-N-methyl]carbamoyl-4-(naphthalen-yl)-1-{1-[2-(naphthalen-1-yl)ethyl]-1H-imidazol-5-yl}methyl-1H-pyrrole]: the pIC50 at Ras farnesyl transferase [1] is 8.70; at Ras farnesyl transferase [2], 4.70 to 5.00; on Ras farnesyl transferase [3], 8.30; at Ras farnesyl transferase [4], 7.92.
The like results for `CN1CCN(C(=O)c2cn(Cc3cncn3CCc3cccc4ccccc34)cc2-c2cccc3ccccc23)CC1` [Compound 32, 3-[4-Methylpiperazin-1-yl]carbonyl-4-(naphthalen-1-yl)-1-{1-[2-(naphthalen-1-yl)ethyl]-1H-imidazol-5-yl}methyl-1H-pyrrole] were, in that order, 8.70, 4.30 to 5.00, 8.52 and 7.82.
With `COCCN(C)C(=O)c1cn(Cc2cncn2CCc2ccc(Br)cc2)cc1-c1cccc2ccccc12` [Compound 33, 1-[1-(4-Bromo)phenethyl-1H-imidazol-5-yl]methyl-3-[N-(2-methoxyethyl)-N-methyl]carbamoyl-4-(naphthalen-1-yl)-1H-pyrrole], the pIC50 at Ras farnesyl transferase [1] was 8.70; at Ras farnesyl transferase [2], 4.30 to 5.00; on Ras farnesyl transferase [3], 8.52; on Ras farnesyl transferase [4], 7.74.
The like results for `CN1CCN(C(=O)c2cn(Cc3cncn3CCc3ccc(Br)cc3)cc2-c2cccc3ccccc23)CC1` [Compound 34, 1-[1-(4-Bromo)phenethyl-1H-imidazol-5-yl]methyl-3-[4-methylpiperazin-1-yl]carbonyl-4-(naphthalen-1-yl)-1H-pyrrole] were, in that order, 8.70, 4.30 to 5.00, 8.52 and 7.70.
On the same counts, the results for `COCCN(C)C(=O)c1cn(Cc2cncn2CCc2ccc(F)cc2)cc1-c1cccc2ccccc12` [Compound 35, 1-[1-(4-Fluoro)phenethyl-1H-imidazol-5-yl]methyl-3-[N-(2-methoxyethyl)-N-methyl]carbamoyl-4-(naphthalen-1-yl)-1H-pyrrole] are 9.00, 4.30 to 5.00, 8.70 and 7.60.
On the same counts, the results for `CN1CCN(C(=O)c2cn(Cc3cncn3CCc3ccc(F)cc3)cc2-c2cccc3ccccc23)CC1` [Compound 36, 1-[1-(4-Fluoro)phenethyl-1H-imidazol-5-yl]methyl-3-[4-methylpiperazin-1-yl]carbonyl-4-(naphthalen-1-yl)-1H-pyrrole] are 9.00, 4.30 to 5.00, 8.70 and 7.60.
Turning to `COCCN(C)C(=O)c1cn(Cc2cncn2CCc2ccc(C)cc2)cc1-c1cccc2ccccc12` [Compound 37, 3-[N-(2-Methoxyethyl)-N-methyl]carbamoyl-1-[1-(4-methyl)phenethyl-1H-imidazol-5-yl]methyl-4-(naphthalen-1-yl)-1H-pyrrole], the pIC50 on Ras farnesyl transferase [1] was 8.70; at Ras farnesyl transferase [2], 4.30 to 5.00; on Ras farnesyl transferase [3], 8.52; on Ras farnesyl transferase [4], 7.60.
As for `Cc1ccc(CCn2cncc2Cn2cc(C(=O)N3CCN(C)CC3)c(-c3cccc4ccccc34)c2)cc1` [Compound 38, 1-[1-(4-Methyl)phenethyl-1H-imidazol-5-yl]methyl-3-[4-methylpiperazin-1-yl]carbonyl-4-(naphthalen-1-yl)-1H-pyrrole], the pIC50 on Ras farnesyl transferase [1] is 8.70; on Ras farnesyl transferase [2], 4.30 to 5.00; on Ras farnesyl transferase [3] it was 8.40; at Ras farnesyl transferase [4], 7.60.
In the case of `COCCN(C)C(=O)c1cn(Cc2cncn2CCc2ccc(Cl)cc2)cc1-c1cccc2ccccc12` [Compound 39, 1-[1-(4-Chloro)phenethyl-1H-imidazol-5-yl]methyl-3[N-(2-methoxyethyl)-N-methyl]carbamoyl-4-(naphthalen-1-yl)-1H-pyrrole], the pIC50 was 8.70 on Ras farnesyl transferase [1], 4.30 to 5.00 on Ras farnesyl transferase [2], 8.52 at Ras farnesyl transferase [3] and 7.70 on Ras farnesyl transferase [4].
On the same counts, the results for `CN1CCN(C(=O)c2cn(Cc3cncn3CCc3ccc(Cl)cc3)cc2-c2cccc3ccccc23)CC1` [Compound 40] are 8.70, 4.30 to 5.00, 8.52 and 7.60.
As for `COCCN(C)C(=O)c1cn(Cc2cncn2CCc2ccc3ccccc3c2)cc1-c1cccc2ccccc12` [Compound 41, 3-[N-(2-Methoxyethyl)-N-methyl]carbamoyl-4-(naphthalen-1-yl)-1-{1-[2-(naphthalen-2-yl)ethyl]-1H-imidazol-5-yl}methyl-1H-pyrrole], the pIC50 at Ras farnesyl transferase [1] is 8.52; at Ras farnesyl transferase [2], 4.30 to 5.00; on Ras farnesyl transferase [3], 8.40; on Ras farnesyl transferase [4], 7.82.
Take `CN1CCN(C(=O)c2cn(Cc3cncn3CCc3ccc4ccccc4c3)cc2-c2cccc3ccccc23)CC1` [Compound 42, 3-[4-Methylpiperazin-1-yl]carbonyl-4-(naphthalen-1-yl)-1-{1-[2-(naphthalen-2-yl)ethyl]-1H-imidazol-5-yl}methyl-1H-pyrrole]: the pIC50 at Ras farnesyl transferase [1] was 8.40; at Ras farnesyl transferase [2], 4.30 to 5.00; at Ras farnesyl transferase [3], 8.52; at Ras farnesyl transferase [4], 7.82.
The like results for `CN1CCN(C(=O)c2cn(Cc3cncn3CCc3ccc(O)cc3)cc2-c2cccc3ccccc23)CC1` [Compound 43, 1-[1-(4-Hydroxy)phenethyl-1H-imidazol-5-yl]methyl-3-[4-mmethylpiperazin-1-yl]carbonyl-4-(naphthalen-1-yl)-1H-pyrrole] were, in that order, 9.00, 5.00 to 5.30, 8.70 and 7.82.
Regarding `O=C(c1cccs1)c1cn(Cc2c[nH]cn2)cc1-c1cccc2ccccc12` [Compound 44, 1-(1H-Imidazol-4-yl)methyl-4-(naphthalen-1-yl)-3-(thiophen-2-yl)carbonyl-1H-pyrrole], the pIC50 is 6.60 at Ras farnesyl transferase [1], 4.00 to 5.00 on Ras farnesyl transferase [2], 5.00 to 7.00 on Ras farnesyl transferase [3] and 4.30 to 6.00 at Ras farnesyl transferase [4].
On the same counts, the results for `O=C(c1ccsc1)c1cn(Cc2c[nH]cn2)cc1-c1cccc2ccccc12` [Compound 45] are 6.89, 4.00 to 5.00, 5.00 to 7.00 and 4.30 to 6.00.
As for `O=C(c1ccccc1)c1cn(Cc2c[nH]cn2)cc1-c1cccc2ccccc12` [Compound 46], the pIC50 was 6.92 on Ras farnesyl transferase [1], 4.00 to 5.00 at Ras farnesyl transferase [2], 5.00 to 7.00 at Ras farnesyl transferase [3] and 4.30 to 6.00 on Ras farnesyl transferase [4].
Take `O=C(c1ccccc1Br)c1cn(Cc2c[nH]cn2)cc1-c1cccc2ccccc12` [Compound 47]: the pIC50 on Ras farnesyl transferase [1] was 7.05; on Ras farnesyl transferase [2], 4.00 to 5.00; at Ras farnesyl transferase [3] it was 5.00 to 7.00; on Ras farnesyl transferase [4] it was 4.30 to 6.00.
